Test results: patent US8722373B2, “Contaminant control in Zymomonas fermentation using virginiamycin” (E I du Pont de Nemours and Company, priority 2012, dated 2014)

Legend:
[1] = system: Zymomonas mobilis strain ZM4; conditions: concentrations that are safe to use with yeast; Agrawan and Basappa 1996; cited from earlier work
[2] = system: Z. mobilis strain ZW705; test: Tolerance of Z. mobilis to virginiamycin: growth in clarified MD07#3 hydrolysate; format: cell-based, Zymomonas mobilis; conditions: 2.5 ppm and 5 ppm virginiamycin; clarified cellulosic biomass hydrolysate medium, conditions of Example 1
Experimental: Z. mobilis strain ZW705 (described in General Methods) inoculum was prepared by reviving 2 mL of OD-10 frozen stock in MRM3G6 medium (10 g/L BBL yeast extract, 2 g/L KH2PO4, 1 g/L MgSO4*7H2O, 60 g/L glucose, pH 5.5) at 33° C. for ˜8 hr. This culture was used to inoculate tubes containing clarified MD07#3 hydrolysate (see General Methods) supplemented with 2 g/L yeast extract and various virginiamycin preparations at a 20% (final volume) inoculation rate, producing an initial OD of ˜0.5. Stocks of the virginiamycin-containing agents Lactrol®, Lactoside V™ or Lactoside 247™ were prepared at 1000 ppm in ethanol. These agents were added to the media at 2.5 ppm, 5 ppm, 10 ppm, or 20 ppm. […] The tubes were maintained at 33° C. with shaking for 32 hours, with growth monitored by measuring OD600.

[3] = system: L. plantarum; test: Contaminated Z. mobilis hydrolysate fermentation with Lactrol in the medium (lactic acid); format: cell-based, Lactobacillus plantarum; conditions: fermentation broth with media containing cellulosic biomass hydrolysate
Experimental: (§1) Fermentation samples were taken at timed intervals and analyzed for EtOH, residual sugars, and other metabolic products such as acetic acid, lactic acid, and glycerol using either a Waters HPLC system (Alliance system, Waters Corp., Milford, Mass.) or an Agilent 1100 Series LC; conditions=0.6 mL/min of 0.01 N H2SO4, injection volume=5 μL, autosampler temperature=10° C., column temperature=55° C., run time=25 min, detection by refractive index (maintained at 40° C.). The HPLC column was purchased from BioRad (Aminex HPX-87H, BioRad Inc., Hercules, Calif.). Analytes were quantified by refractive index detection and compared to known standards.
To determine the Lactrol® dose required to prevent lactic acid formation during hydrolysate fermentation, a portion of intentionally-contaminated seed culture F1067 at EFT=19.3 hr (from Example 1) was used as a seed culture to inoculate cob hydrolysate medium (FRF13; see General Methods) (adjusted to pH 5.8, +10 mM sorbitol) at 10 vol % (final volume) containing either 0 ppm (sample F1069) or 2 ppm (sample F1071) of Lactrol®, which was then fermented at 33° C. (reduced to 30° C. at EFT=21 hr) and pH 5.8 (adjusted with 4 N NaOH). […]

[4] = system: Lactobacillus plantarum strain ATCC 8014; test: Contamination control in Z. mobilis seed medium (lactic acid formation); format: cell-based; conditions: fermentation broth with media lacking cellulosic biomass hydrolysate
Experimental: as §1
Z. mobilis strain ZW705 (described in General Methods) inoculum was prepared by reviving 2 mL of OD-10 frozen stock in MRM3G6 medium (10 g/L BBL yeast extract, 2 g/L KH2PO4, 1 g/L MgSO4*7H2O, 60 g/L glucose, pH 5.5) at 33° C. for ˜8 hr, at which point the OD was ˜2. Lactobacillus plantarum strain ATCC 8014 inoculum was prepared by inoculating MRS medium with an individual colony and allowing growth at 33° C. for 8 hr, at which point the OD was ˜0.4.
Seed medium (10 g/L Amberex695 yeast extract, 2 g/L KH2PO4, 5 g/L MgSO4*7H2O, 10 mM sorbitol, 150 g/L glucose, pH 5.5) was prepared and sterilized by autoclaving (121° C., 30 min). […]

Compound: CC1(C)S[C@@H]2[C@H](NC(=O)Cc3ccccc3)C(=O)N2[C@H]1C(=O)O [penicillin G]
- effect on growth of / safety for Zymomonas [1]: safe for use with Zymomonas

Compound: [H]/N=C(/N)N[C@H]1[C@H](O)[C@@H](O)[C@H](O[C@@H]2O[C@@H](C)[C@](O)(C=O)[C@H]2O[C@@H]2O[C@@H](CO)[C@H](O)[C@@H](O)[C@@H]2NC)[C@@H](N/C(N)=N\[H])[C@@H]1O [streptomycin]
- effect on growth of / safety for Zymomonas [1]: inhibitory to growth

Compound: polymixin
- effect on growth of / safety for Zymomonas [1]: inhibitory to growth

Compound: virginiamycin
- growth of Zymomonas cells (OD600) compared with absence of virginiamycin [2]: improved growth
- concentration of virginiamycin that controls contaminating bacteria while maintaining typical ethanol production [3]: at least 10 ppm
- concentration of virginiamycin that controls contaminating bacteria without affecting glucose utilization and ethanol production of Zymomonas cells [4]: about 2 ppm
